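Five concentrations, 48 hours, 96-well plates. TGI: total growth inhibition.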
What was measured:
Experiment in all cases: growth of human tumour cells (NCI), 48 h
[1] = tested on: MCF7 breast
[2] = tested on: NCI/ADR-RES ovarian
[3] = tested on: SF-268 CNS
[4] = tested on: NCI-H23 lung
[5] = tested on: HOP-92 NSCLC
[6] = tested on: OVCAR-5 ovarian
[7] = tested on: HT29 colon
[8] = tested on: ACHN renal
[9] = tested on: EKVX NSCLC
[10] = tested on: LOX IMVI melanoma
[11] = tested on: HCT-15 colon
[12] = tested on: A498 renal
[13] = tested on: MDA-MB-231 breast
[14] = tested on: HCC-2998 colon
[15] = tested on: SN12C renal
[16] = tested on: HS 578T breast
[17] = tested on: RPMI-8226 leukemia
[18] = tested on: BT-549 breast
[19] = tested on: PC-3 prostate

## Fc1ccc2c3c([nH]c2c1)CCNC3
[1]
  TGI: > 100 µM
[2]
  TGI: > 100 µM
[3]
  TGI: > 100 µM
[4]
  TGI: > 100 µM
[5]
  TGI: 85.9 µM
[6]
  TGI: > 100 µM
[7]
  TGI: > 100 µM
[8]
  TGI: > 100 µM
[9]
  TGI: > 100 µM
[10]
  TGI: > 100 µM
[11]
  TGI: > 100 µM
[12]
  TGI: 65.9 µM
[13]
  TGI: > 100 µM
[14]
  TGI: > 100 µM
[15]
  TGI: > 100 µM
[16]
  TGI: > 100 µM
[17]
  TGI: > 100 µM

## CCOP(=O)(OCC)C(Nc1ccc(C(=O)O)cc1)c1ccc(C(Nc2ccc(C(=O)O)cc2)P(=O)(OCC)OCC)cc1 (configuration not stated)
[2]
  TGI: > 100 µM
[3]
  TGI: > 100 µM
[4]
  TGI: > 100 µM
[5]
  TGI: > 100 µM
[6]
  TGI: > 100 µM
[7]
  TGI: > 100 µM
[8]
  TGI: > 100 µM
[9]
  TGI: > 100 µM
[10]
  TGI: > 100 µM
[11]
  TGI: > 100 µM
[12]
  TGI: > 100 µM
[13]
  TGI: > 100 µM
[18]
  TGI: > 100 µM
[14]
  TGI: > 100 µM
[16]
  TGI: > 100 µM
[17]
  TGI: > 100 µM
[19]
  TGI: > 100 µM

## COc1ccc2c(c1)OC(c1ccccc1O)CC2=O (configuration not stated)
[3]
  TGI: > 100 µM
[4]
  TGI: > 100 µM
[6]
  TGI: > 100 µM
[7]
  TGI: > 100 µM
[8]
  TGI: > 100 µM
[9]
  TGI: > 100 µM
[11]
  TGI: > 100 µM
[12]
  TGI: > 100 µM
[14]
  TGI: > 100 µM
[15]
  TGI: > 100 µM
[17]
  TGI: > 100 µM

## COC(=O)[C@@H]1OC(C)(c2ccccc2)O[C@H]1C(=O)OC
[1]
  TGI: > 100 µM
[2]
  TGI: > 100 µM
[3]
  TGI: > 100 µM
[4]
  TGI: > 100 µM
[5]
  TGI: > 100 µM
[6]
  TGI: > 100 µM
[7]
  TGI: > 100 µM
[8]
  TGI: > 100 µM
[9]
  TGI: > 100 µM
[10]
  TGI: > 100 µM
[11]
  TGI: > 100 µM
[12]
  TGI: > 100 µM
[13]
  TGI: > 100 µM
[14]
  TGI: > 100 µM
[16]
  TGI: > 100 µM
[17]
  TGI: > 100 µM
[19]
  TGI: > 100 µM

## CCCc1c(C(=O)OCC)[nH]c(C(=O)CCC(=O)c2[nH]c(C(=O)OCC)c(CCC)c2C(=O)OCC)c1C(=O)OCC
[3]
  TGI: > 100 µM
[4]
  TGI: > 100 µM
[5]
  TGI: > 100 µM
[6]
  TGI: > 100 µM
[7]
  TGI: > 100 µM
[8]
  TGI: > 100 µM
[9]
  TGI: > 100 µM
[10]
  TGI: > 100 µM
[11]
  TGI: > 100 µM
[12]
  TGI: > 100 µM
[14]
  TGI: > 100 µM
[15]
  TGI: > 100 µM
[17]
  TGI: > 100 µM

## CN(C)Cc1cc(/C=C/C(=O)c2ccc(Cl)c(Cl)c2)cc(CN(C)C)c1O
[1]
  TGI: 31.7 µM
[2]
  TGI: 50.6 µM
[3]
  TGI: 23.7 µM
[6]
  TGI: 28.3 µM
[7]
  TGI: 28.6 µM
[8]
  TGI: 25.4 µM
[9]
  TGI: 30.1 µM
[12]
  TGI: 32.4 µM
[13]
  TGI: 21.8 µM
[18]
  TGI: 22.2 µM
[14]
  TGI: 19.3 µM
[15]
  TGI: 30.2 µM
[17]
  TGI: 36.8 µM
[19]
  TGI: 28.2 µM

## COC(=O)C1(C(=O)OC)CC2=C(S(=O)(=O)c3ccccc3)C[C@H](C#N)[C@H]2C1
[1]
  TGI: > 100 µM
[2]
  TGI: > 100 µM
[3]
  TGI: > 100 µM
[4]
  TGI: > 100 µM
[5]
  TGI: > 100 µM
[6]
  TGI: > 100 µM
[7]
  TGI: > 100 µM
[8]
  TGI: > 100 µM
[9]
  TGI: > 100 µM
[10]
  TGI: > 100 µM
[11]
  TGI: > 100 µM
[12]
  TGI: > 100 µM
[13]
  TGI: > 100 µM
[15]
  TGI: > 100 µM
[16]
  TGI: > 100 µM
[19]
  TGI: > 100 µM

## NC(=O)OCc1c(-c2ccccc2)nn(-c2ccccc2)c1COC(N)=O
[1]
  TGI: > 100 µM
[2]
  TGI: > 100 µM
[3]
  TGI: > 100 µM
[4]
  TGI: > 100 µM
[5]
  TGI: > 100 µM
[6]
  TGI: > 100 µM
[7]
  TGI: > 100 µM
[11]
  TGI: > 100 µM
[13]
  TGI: > 100 µM
[18]
  TGI: > 100 µM
[14]
  TGI: > 100 µM
[15]
  TGI: > 100 µM
[17]
  TGI: > 100 µM
[19]
  TGI: > 100 µM

## O=C1OC(CS(=O)(=O)c2ccccc2)CC1O (configuration not stated)
[1]
  TGI: > 100 µM
[2]
  TGI: > 100 µM
[3]
  TGI: > 100 µM
[4]
  TGI: > 100 µM
[6]
  TGI: > 100 µM
[7]
  TGI: > 100 µM
[8]
  TGI: > 100 µM
[9]
  TGI: > 100 µM
[10]
  TGI: > 100 µM
[11]
  TGI: > 100 µM
[12]
  TGI: > 100 µM
[13]
  TGI: > 100 µM
[18]
  TGI: > 100 µM
[14]
  TGI: > 100 µM
[15]
  TGI: > 100 µM
[17]
  TGI: > 100 µM
[19]
  TGI: > 100 µM

## CC1c2cc(c3c(c2O)CN([C@@H](C)C2CCCCC2)CO3)C(C)c2cc(c3c(c2O)CN([C@@H](C)C2CCCCC2)CO3)C(C)c2cc(c3c(c2O)CN([C@@H](C)C2CCCCC2)CO3)C(C)c2cc1c1c(c2O)CN([C@@H](C)C2CCCCC2)CO1 (some centres not stated)
[2]
  TGI: 2.67 µM
[3]
  TGI: 2.85 µM
[5]
  TGI: 2.85 µM
[6]
  TGI: 4.04 µM
[7]
  TGI: 1.26 µM
[8]
  TGI: 2.78 µM
[9]
  TGI: 2.45 µM
[11]
  TGI: 2.92 µM
[12]
  TGI: 3.57 µM
[13]
  TGI: 2.7 µM
[18]
  TGI: 3.49 µM
[14]
  TGI: 2.82 µM
[15]
  TGI: 2.29 µM
[16]
  TGI: 3.15 µM
[17]
  TGI: 2.15 µM

## Nc1ncnc2c1ncn2C1CC(OC2CCCCO2)C(CO)O1 (configuration not stated)
[3]
  TGI: > 100 µM
[4]
  TGI: > 100 µM
[5]
  TGI: > 100 µM
[6]
  TGI: > 100 µM
[7]
  TGI: > 100 µM
[8]
  TGI: > 100 µM
[9]
  TGI: > 100 µM
[10]
  TGI: > 100 µM
[11]
  TGI: > 100 µM
[12]
  TGI: > 100 µM
[14]
  TGI: > 100 µM
[15]
  TGI: > 100 µM
[17]
  TGI: > 100 µM

## CC1(O)Oc2ccc3ccccc3c2C=C1C(N)=O (configuration not stated)
[1]
  TGI: > 100 µM
[3]
  TGI: > 100 µM
[4]
  TGI: > 100 µM
[5]
  TGI: > 100 µM
[8]
  TGI: > 100 µM
[9]
  TGI: > 100 µM
[10]
  TGI: > 100 µM
[11]
  TGI: > 100 µM
[12]
  TGI: > 100 µM
[13]
  TGI: 93.8 µM
[14]
  TGI: > 100 µM
[16]
  TGI: > 100 µM
[17]
  TGI: > 100 µM
[19]
  TGI: > 100 µM

## C/C(=N/NC(N)=S)C(CN(C)C)C(C1=C(O)c2ccccc2OC1)c1ccccc1 (configuration not stated)
[3]
  TGI: > 100 µM
[4]
  TGI: > 100 µM
[6]
  TGI: > 100 µM
[7]
  TGI: > 100 µM
[8]
  TGI: > 100 µM
[9]
  TGI: > 100 µM
[10]
  TGI: > 100 µM
[11]
  TGI: > 100 µM
[12]
  TGI: > 100 µM
[14]
  TGI: > 100 µM
[15]
  TGI: > 100 µM
[17]
  TGI: > 100 µM

## CCOC(=O)Nn1c(C)cc(C(=O)OC)c1C
[3]
  TGI: > 100 µM
[4]
  TGI: > 100 µM
[6]
  TGI: > 100 µM
[7]
  TGI: > 100 µM
[8]
  TGI: > 100 µM
[9]
  TGI: > 100 µM
[10]
  TGI: > 100 µM
[11]
  TGI: > 100 µM
[12]
  TGI: > 100 µM
[14]
  TGI: > 100 µM
[15]
  TGI: > 100 µM
[17]
  TGI: > 100 µM

## Cc1cc(=O)[nH]c(NNC(C#N)c2ccco2)n1 (configuration not stated)
[3]
  TGI: > 100 µM
[4]
  TGI: > 100 µM
[5]
  TGI: > 100 µM
[6]
  TGI: > 100 µM
[7]
  TGI: > 100 µM
[8]
  TGI: > 100 µM
[10]
  TGI: > 100 µM
[11]
  TGI: > 100 µM
[15]
  TGI: > 100 µM
[17]
  TGI: > 100 µM
